Results: patent publication US20100298141A1, “SUBSTITUTED PYRIDINE N-OXIDE HERBICIDES” (E. I. DU PONT DE NEMOURS AND COMPANY, priority 2007, published 2010)

Key:
velvetleaf [1] = assay: Test C pre-/postemergence test; type: in vivo, Abutilon theophrasti; details: Preemergence; for Velvetleaf plant response rating: 62 g ai/ha, scale 0 to 100; for Plant response rating, Velvetleaf: 31 g ai/ha, scale 0 to 100 (0 no effect, 100 complete control)
How it was run: (§1)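 Seeds were planted and treated preemergence with test chemical in a non-phytotoxic solvent mixture containing surfactant. Postemergence applications of the same formulation went onto plants 2 to 18 cm tall (1- to 4-leaf stage). A dash marks no test result.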

eastern black nightshade = assay: Test C pre-/postemergence test; type: in vivo, Solanum ptycanthum; details: Preemergence; for Nightshade plant response rating: 62 g ai/ha, scale 0 to 100; for Plant response rating, Nightshade: 31 g ai/ha, scale 0 to 100 (0 no effect, 100 complete control)
How it was run: as §1

downy brome = assay: Test C pre-/postemergence test; type: in vivo, Bromus tectorum; details: for Plant response rating, Bromegrass, Downy: 31 g ai/ha, scale 0 to 100 (0 no effect, 100 complete control); for Plant response rating (0 to 100), Bromegrass, Downy: 250 g ai/ha
How it was run: as §1

johnsongrass = assay: Test C pre-/postemergence test; type: in vivo, Sorghum halepense; details: Preemergence; for Johnsongrass plant response rating: 62 g ai/ha, scale 0 to 100; for Plant response rating (0 to 100), Johnsongrass: 250 g ai/ha
How it was run: as §1

catchweed bedstraw = assay: Test C pre-/postemergence test; type: in vivo, Galium aparine; details: Preemergence; for Galium plant response rating: 62 g ai/ha, scale 0 to 100; for Plant response rating, Galium: 31 g ai/ha, scale 0 to 100 (0 no effect, 100 complete control); for Plant response rating (0 to 100), Galium: 250 g ai/ha
How it was run: as §1

wheat [2] = assay: Test C pre-/postemergence test; type: in vivo, Triticum aestivum; details: Preemergence; for Wheat plant response rating: 62 g ai/ha, scale 0 to 100; for Plant response rating, Wheat: 31 g ai/ha, scale 0 to 100 (0 no effect, 100 complete control)
How it was run: as §1

corn = assay: Test C pre-/postemergence test; type: in vivo, Zea mays; details: for Plant response rating, Corn: 31 g ai/ha, scale 0 to 100 (0 no effect, 100 complete control); for Plant response rating (0 to 100), Corn: 250 g ai/ha
How it was run: as §1

redroot pigweed = assay: Test A pre-/postemergence greenhouse test; type: in vivo, Amaranthus retroflexus; details: for Pigweed plant response rating: 0 to 100 scale; for Plant response rating, Pigweed: 0 to 100 scale where 0 is no effect and 100 is complete control
How it was run: (§2)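 Greenhouse herbicide screen, pre- and postemergence in parallel. Soil: loam plus sand. Formulation: non-phytotoxic solvent mix with surfactant. Postemergence stage: one to two leaves, 2–10 cm height. Evaluation: visual injury, compared with untreated controls, about 10 days after treatment.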

giant foxtail = assay: Test C pre-/postemergence test; type: in vivo, Setaria faberii; details: Preemergence; for Foxtail, Giant plant response rating: 62 g ai/ha, scale 0 to 100; for Plant response rating, Foxtail, Giant: 31 g ai/ha, scale 0 to 100 (0 no effect, 100 complete control); for Plant response rating (0 to 100), Foxtail, Giant: 250 g ai/ha
How it was run: as §1

rice = assay: Test C flooded paddy test; type: in vivo, Oryza sativa; details: Flood
How it was run: (§3)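 In-water treatment: compound dosed into 3 cm flood over soil, water level unchanged throughout. Controls run alongside; visual assessment at day 13–15.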

yellow nutsedge = assay: Test C pre-/postemergence test; type: in vivo, Cyperus esculentus; details: Preemergence; for Nutsedge, Yellow plant response rating: 62 g ai/ha, scale 0 to 100; for Plant response rating, Nutsedge, Yellow: 31 g ai/ha, scale 0 to 100 (0 no effect, 100 complete control)
How it was run: as §1

wheat [3] = assay: Test A pre-/postemergence greenhouse test; type: in vivo, Triticum aestivum; details: for Wheat plant response rating: 0 to 100 scale; for Plant response rating, Wheat: 0 to 100 scale where 0 is no effect and 100 is complete control
How it was run: as §2

morningglory = assay: Test C pre-/postemergence test; type: in vivo, Ipomoea coccinea; details: Preemergence; for Morningglory plant response rating: 62 g ai/ha, scale 0 to 100
How it was run: as §1

woolly cupgrass = assay: Test C pre-/postemergence test; type: in vivo, Eriochloa villosa; details: Preemergence; for Cupgrass, Woolly plant response rating: 62 g ai/ha, scale 0 to 100; for Plant response rating, Cupgrass, Woolly: 31 g ai/ha, scale 0 to 100 (0 no effect, 100 complete control); for Plant response rating (0 to 100), Cupgrass, Woolly: 250 g ai/ha
How it was run: as §1

wild oat = assay: Test C pre-/postemergence test; type: in vivo, Avena fatua; details: Preemergence; for Oat, Wild plant response rating: 62 g ai/ha, scale 0 to 100; for Plant response rating, Oat, Wild: 31 g ai/ha, scale 0 to 100 (0 no effect, 100 complete control)
How it was run: as §1

duck salad = assay: Test C flooded paddy test; type: in vivo, Heteranthera limosa; details: Flood
How it was run: as §3

velvetleaf [4] = assay: Test A pre-/postemergence greenhouse test; type: in vivo, Abutilon theophrasti; details: for Velvetleaf plant response rating: 0 to 100 scale; for Plant response rating, Velvetleaf: 0 to 100 scale where 0 is no effect and 100 is complete control
How it was run: as §2

[5] = 62 g ai/ha, Preemergence, scale 0 to 100
[6] = preemergence, 125 g ai/ha, scale 0 (no effect) to 100 (complete control)
[7] = 31 g ai/ha, scale 0 to 100 (0 no effect, 100 complete control)
[8] = Postemergence, 125 g ai/ha, 0 is no effect, 100 is complete control
[9] = Postemergence, 500 g ai/ha, 0 is no effect, 100 is complete control
[10] = Preemergence, 125 g ai/ha, 0 no effect, 100 complete control
[11] = 62 g ai/ha, scale 0 to 100, 0 no effect, 100 complete control, 13 to 15 days
[12] = 125 g ai/ha, scale 0 to 100, 0 no effect, 100 complete control, 13 to 15 days
[13] = 250 g ai/ha, scale 0 to 100 (0 no effect, 100 complete control)

Cc1cc[n+]([O-])c([S+]([O-])Cc2c(C(F)(F)F)nn(C)c2Cl)c1 (racemic) [Compound 20]
Velvetleaf plant response rating (velvetleaf [1]): 5 | Plant response rating, Velvetleaf (velvetleaf [1]): 0 | Nightshade plant response rating (eastern black nightshade): 85 | Plant response rating, Nightshade (eastern black nightshade): 80 | Bromegrass, Downy plant response rating (downy brome; [5]): 0 | Plant response rating, Bromegrass, Downy (downy brome; Preemergence): 0 | Plant response rating (0 to 100), Bromegrass, Downy (downy brome; Preemergence): 70 | Bromegrass, Downy plant response rating (downy brome; [6]): 70 | Johnsongrass plant response rating (johnsongrass): 80 | Plant response rating, Johnsongrass (johnsongrass; [7]): 60 | Plant response rating (0 to 100), Johnsongrass (johnsongrass): 100 | Galium plant response rating (catchweed bedstraw): 85 | Plant response rating, Galium (catchweed bedstraw): 80 | Plant response rating (0 to 100), Galium (catchweed bedstraw): 100 | Wheat plant response rating (wheat [2]): 70 | Plant response rating, Wheat (wheat [2]): 0 | Corn plant response rating (corn; [5]): 20 | Plant response rating, Corn (corn; Preemergence): 0 | Plant response rating (0 to 100), Corn (corn; Preemergence): 85 | Corn plant response rating (corn; [6]): 50 | Pigweed plant response rating (redroot pigweed; [8]): 40 | Pigweed plant response rating (redroot pigweed; [9]): 70 | Pigweed plant response rating (redroot pigweed; [10]): 90 | Plant response rating, Pigweed (redroot pigweed; Preemergence, 500 g ai/ha): 100 | Foxtail, Giant plant response rating (giant foxtail): 98 | Plant response rating, Foxtail, Giant (giant foxtail): 85 | Plant response rating (0 to 100), Foxtail, Giant (giant foxtail): 100 | Plant response rating, Rice (rice; [7]): 0 | Plant response rating, Rice (rice; [11]): 0 | Plant response rating, Rice (rice; [12]): 0 | Plant response rating, Rice (rice; [13]): 30 | Nutsedge, Yellow plant response rating (yellow nutsedge): 10 | Plant response rating, Nutsedge, Yellow (yellow nutsedge): 0 | Wheat plant response rating (wheat [3]; [8]): 0 | Wheat plant response rating (wheat [3]; [9]): 60 | Wheat plant response rating (wheat [3]; [10]): 30 | Plant response rating, Wheat (wheat [3]; Preemergence, 500 g ai/ha): 80 | Morningglory plant response rating (morningglory): 85 | Plant response rating, Morningglory (morningglory; [7]): 0 | Cupgrass, Woolly plant response rating (woolly cupgrass): 70 | Plant response rating, Cupgrass, Woolly (woolly cupgrass): 0 | Plant response rating (0 to 100), Cupgrass, Woolly (woolly cupgrass): 100 | Oat, Wild plant response rating (wild oat): 10 | Plant response rating, Oat, Wild (wild oat): 0 | Plant response rating, Ducksalad (duck salad; [7]): 0 | Plant response rating, Ducksalad (duck salad; [11]): 0 | Plant response rating, Ducksalad (duck salad; [12]): 0 | Plant response rating, Ducksalad (duck salad; [13]): 75 | Velvetleaf plant response rating (velvetleaf [4]; [8]): 30 | Velvetleaf plant response rating (velvetleaf [4]; [9]): 60 | Velvetleaf plant response rating (velvetleaf [4]; [10]): 0 | Plant response rating, Velvetleaf (velvetleaf [4]; Preemergence, 500 g ai/ha): 60

CC(c1c(C(F)(F)F)nn(C)c1OC(F)F)S(=O)(=O)c1cc(C(C)(C)C)cc[n+]1[O-] (racemic) [Compound 26]
Velvetleaf plant response rating (velvetleaf [1]): 80 | Plant response rating, Velvetleaf (velvetleaf [1]): 30 | Nightshade plant response rating (eastern black nightshade): 100 | Plant response rating, Nightshade (eastern black nightshade): 100 | Bromegrass, Downy plant response rating (downy brome; [5]): 45 | Plant response rating, Bromegrass, Downy (downy brome; Preemergence): 0 | Plant response rating (0 to 100), Bromegrass, Downy (downy brome; Preemergence): 60 | Bromegrass, Downy plant response rating (downy brome; [6]): 45 | Johnsongrass plant response rating (johnsongrass): 85 | Plant response rating (0 to 100), Johnsongrass (johnsongrass): 100 | Galium plant response rating (catchweed bedstraw): 85 | Plant response rating, Galium (catchweed bedstraw): 50 | Plant response rating (0 to 100), Galium (catchweed bedstraw): 100 | Wheat plant response rating (wheat [2]): 0 | Plant response rating, Wheat (wheat [2]): 0 | Corn plant response rating (corn; [5]): 0 | Plant response rating, Corn (corn; Preemergence): 0 | Plant response rating (0 to 100), Corn (corn; Preemergence): 95 | Corn plant response rating (corn; [6]): 70 | Pigweed plant response rating (redroot pigweed; [8]): 40 | Pigweed plant response rating (redroot pigweed; [9]): 60 | Pigweed plant response rating (redroot pigweed; [10]): 90 | Plant response rating, Pigweed (redroot pigweed; Preemergence, 500 g ai/ha): 100 | Foxtail, Giant plant response rating (giant foxtail): 70 | Plant response rating, Foxtail, Giant (giant foxtail): 40 | Plant response rating (0 to 100), Foxtail, Giant (giant foxtail): 75 | Plant response rating, Rice (rice; [7]): 0 | Plant response rating, Rice (rice; [11]): 0 | Plant response rating, Rice (rice; [12]): 0 | Plant response rating, Rice (rice; [13]): 80 | Nutsedge, Yellow plant response rating (yellow nutsedge): 50 | Plant response rating, Nutsedge, Yellow (yellow nutsedge): 0 | Wheat plant response rating (wheat [3]; [8]): 10 | Wheat plant response rating (wheat [3]; [9]): 40 | Wheat plant response rating (wheat [3]; [10]): 20 | Plant response rating, Wheat (wheat [3]; Preemergence, 500 g ai/ha): 70 | Morningglory plant response rating (morningglory): 80 | Cupgrass, Woolly plant response rating (woolly cupgrass): 40 | Plant response rating, Cupgrass, Woolly (woolly cupgrass): 40 | Plant response rating (0 to 100), Cupgrass, Woolly (woolly cupgrass): 98 | Oat, Wild plant response rating (wild oat): 60 | Plant response rating, Oat, Wild (wild oat): 0 | Plant response rating, Ducksalad (duck salad; [7]): 40 | Plant response rating, Ducksalad (duck salad; [11]): 65 | Plant response rating, Ducksalad (duck salad; [12]): 65 | Plant response rating, Ducksalad (duck salad; [13]): 90 | Velvetleaf plant response rating (velvetleaf [4]; [8]): 0 | Velvetleaf plant response rating (velvetleaf [4]; [9]): 0 | Velvetleaf plant response rating (velvetleaf [4]; [10]): 0 | Plant response rating, Velvetleaf (velvetleaf [4]; Preemergence, 500 g ai/ha): 70
